≈ marks a conversion by molar mass, not a printed value.
Conditions: buffer; pH 7.4; 200.0 µM

SMILES	solubility kinetic [µg/mL]
CNC(=O)NC(=O)CN1C(=O)NC2(CCOc3ccccc32)C1=O (stereo unspecified)	> 49.8
O=C(CSc1ccccn1)Nc1ccc2c(c1)OCO2	> 43.2
c1ccc(-c2noc(CC3CCCCC3)n2)nc1	32.2 (≈ 132 µM)
COc1ccc(C(=O)NC(=S)N(C)C2CCCCC2)cc1Br	0.7 (≈ 1.82 µM)
O=C(NN1CCOCC1)c1ccc(F)cc1	> 33.6
CN1CCN(C(=O)CCN2C(=O)/C(=C\c3ccc(F)cc3)SC2=S)CC1	22.3 (≈ 56.7 µM)
Cc1ccsc1C(=O)OCC(=O)NC1CCCC1	> 40.1
CCC(=O)N1CCN=C1SCc1cccc(F)c1	> 39.9
O=C(Nc1cc(Cl)ccc1-n1cncn1)C1CC1	> 39.4
N#Cc1cc2c(nc1SCC(=O)O)CCCCC2	> 39.3
NS(=O)(=O)c1ccc(CCNC(=O)c2ccc(=O)[nH]c2)cc1	> 48.2
Cc1nccc(-c2ccc3c(c2)OCO3)n1	30.3 (≈ 141 µM)
O=CNc1ccc(OC(=O)c2cncc(Br)c2)cc1	15.4 (≈ 48 µM)
COC(=O)c1sc(-c2ccc(Cl)cc2)cc1N	< 0.6
Cc1cccc(NC(=S)NCc2ccc(F)cc2)c1C	35.2 (≈ 122 µM)
CC(C)N(C(=S)Nc1ccc(S(=O)(=O)N2CCOCC2)cc1)c1ccccc1	7.1 (≈ 16.9 µM)
CC(NC(=O)c1c(O)c2ccccc2[nH]c1=O)c1ccccc1 (stereo unspecified)	< 0.3
CC(=O)c1c(OC(=O)c2cccc(Cl)c2)c2ccccc2n1C	< 0.7
COC(=O)C1CCN(C(=O)c2cc(-c3ccco3)nc3ccccc23)CC1	> 54.7
O=C(c1cccc2ccccc12)N1CCCCC1	34.9 (≈ 146 µM)
O=C(NC1CC1)c1nc(Cn2cc([N+](=O)[O-])cn2)no1	> 41.7

SMILES	solubility kinetic [µg/mL]
COc1ccc(C(=O)Nc2cccnc2Cl)cc1OC	42.5 (≈ 145 µM)
CC(C)C(=O)NCc1cc(-c2ccccc2)no1	32.5 (≈ 133 µM)
O=C(COc1ccccc1C(=O)O)Nc1cccc2ccccc12	> 48.2
CN1CCC(N(C)C(=O)c2cc(-c3ccc(F)cc3)nc3ccccc23)CC1.Cl	> 62.1
Cc1ccc2c(c1)N(CC(=O)N1CCCCC1)C(=O)C(C)O2 (stereo unspecified)	> 45.4
CS(=O)(=O)N1CCC(C(=O)NCc2ccc3c(c2)OCO3)CC1	> 51.1
OC(CN1CCC(Cc2ccccc2)CC1)c1ccccc1 (stereo unspecified)	> 44.3
Cc1nc2ccc(NC(=O)N3CCOCC3)cc2nc1C	> 42.9
COc1cc(C(C)=O)ccc1OC(=O)N(C)c1ccccc1	44.2 (≈ 148 µM)
COc1ccc(C(=O)NCC(=O)N2CCCCC2)cc1OC	> 46
O=C1NC(=O)C2(CCCc3ccccc32)N1 (stereo unspecified)	30.6 (≈ 142 µM)
CCC(Cc1ccccc1)NC(=O)CCc1ccccc1 (stereo unspecified)	> 42.2
O=C(NCCc1c[nH]c2ccccc12)c1ccc(Cl)cc1	5.2 (≈ 17.4 µM)
CC1CN(C(=O)c2cc3cc(Cl)ccc3[nH]2)CC(C)O1 (stereo unspecified)	24.3 (≈ 83 µM)
O=C(O)CCNC(=O)c1ccccc1	> 29
CN(C)S(=O)(=O)c1ccc(C(=O)OCC2COC(C)(C)O2)cc1 (stereo unspecified)	48.6 (≈ 142 µM)
O=C1CN(c2ccccc2)C(=O)N1	> 26.4
O=C(NC1CCCCCC1)C1CCN(S(=O)(=O)c2cnc[nH]2)CC1	50.7 (≈ 143 µM)
CCc1nccn1Cc1cc(C=O)ccc1OC.Cl	> 42.1
O=C(NC1CCCC1)C1CC(=O)N(c2ccc(F)cc2)C1 (stereo unspecified)	38.4 (≈ 132 µM)
COC(=O)Nc1sc2c(c1C(N)=O)CCC(C)C2 (stereo unspecified)	5 (≈ 18.6 µM)

The next lines start with the values.

solubility kinetic [µg/mL]	SMILES
32 (≈ 117 µM)	O=S(=O)(c1ccc(=S)[nH]c1)N1CCCCCC1
17.7 (≈ 77.9 µM)	Nc1ccc(-c2nc3ccccc3s2)cn1
2.6 (≈ 7.33 µM)	CCC(C)c1ccc(NC(=S)N2CCN(c3ccccn3)CC2)cc1 (stereo unspecified)
< 0.3	COc1ccc(N2CCN(C(=S)NCc3ccc(C)cc3)CC2)cc1
> 44	CC1(C(=O)O)CCC(C(=O)Nc2cccc(F)c2)C1(C)C (stereo unspecified)
26.2 (≈ 111 µM)	CC1CC(c2ccccc2)=Nc2ccccc2N1 (stereo unspecified)
45.3 (≈ 138 µM)	CS(=O)(=O)N(CC(=O)Nc1ccc(F)cc1)C1CCCCC1
38.2 (≈ 149 µM)	Cc1cnc(C(=O)Oc2c(C)ccc(C)c2C)cn1
> 43.2	CC1(C(=O)Nc2ccc3c(c2)OCO3)CC1(Cl)Cl (stereo unspecified)
> 46.7	COC(=O)C(Cc1ccc(O)cc1)N1Cc2ccccc2C1=O (stereo unspecified)
2.6 (≈ 8.38 µM)	CC(=O)N=c1scc(-c2ccccc2)n1-c1cccc(O)c1
> 51.8	CC(=O)Nc1ccc(S(=O)(=O)N(C#N)c2nc(C)cc(C)n2)cc1
< 0.2	Cc1ccnc(Nc2nc(-c3ccc(F)cc3)cs2)c1
19.6 (≈ 66.8 µM)	O=C1OC(c2ccc(F)cc2)=N/C1=C\C=C/c1ccccc1
3.6 (≈ 13.3 µM)	O=C(N1CCCCC1)C1(c2ccccc2)CCCCC1
> 43.4	CC1(C)CC(=O)C(N=Nc2cccc([N+](=O)[O-])c2)=C(O)C1
3.3 (≈ 10.6 µM)	COc1ccc(-n2cc(-c3ccccc3)[nH]c2=S)c(OC)c1
> 46.3	COc1ccc(NC(=O)CCSc2nc(C)cs2)cc1
0.5 (≈ 1.46 µM)	CC(=O)N1CCc2ccc(S(=O)(=O)N3CCc4ccccc43)cc21
